The assay has as its system L1210 leukemia ip in BDF1 mice, survival T/C. The experiment in a line: NCI In Vivo Anticancer Drug Screen. Data for tumor model L1210 Leukemia (intraperitoneal) in B6D2F1 (BDF1) mice. As to conditions: endpoint: mean survival time, higher = longer survival. A digest of the protocol: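 Read-out is survival time, reported as the treated-group measurement over the vehicle-control measurement.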

Where [1] appears, read: dose: 100.0 mg/kg/injection, schedule: Q01DX001 (ip), vehicle: saline.
[2] abbreviates: dose: 400.0 mg/kg/injection, schedule: Q01DX001 (ip), vehicle: saline.
Setting [3] is: dose: 100.0 mg/kg/injection, schedule: Q04DX003 (ip), vehicle: saline.
Setting [4] is: dose: 200.0 mg/kg/injection, schedule: Q04DX003 (ip), vehicle: saline.
Where [5] appears, read: dose: 100.0 mg/kg/injection, schedule: Q04DX002 (ip), vehicle: Klucel (hydroxypropylcellulose) (HPC).
[6] abbreviates: dose: 200.0 mg/kg/injection, schedule: Q04DX002 (ip), vehicle: Klucel (hydroxypropylcellulose) (HPC).
The mark [7] stands for this setting: dose: 400.0 mg/kg/injection, schedule: Q04DX002 (ip), vehicle: Klucel (hydroxypropylcellulose) (HPC).
Where [8] appears, read: dose: 200.0 mg/kg/injection, schedule: Q01DX001 (ip), vehicle: saline.
Setting [9] is: dose: 100.0 mg/kg/injection, schedule: Q04DX003 (ip), vehicle: saline with Tween-80.
Setting [10] is: dose: 200.0 mg/kg/injection, schedule: Q04DX003 (ip), vehicle: saline with Tween-80.

Where “and” joins values, the source holds several entries; their conditions need not be identical. Equal entries are not always repeated. Inconclusive results and toxic doses are left out.

Take `c1nc2c([nH]1)CCCCC2`: the T/C runs as follows: (dose: 12.5 mg/kg/injection, schedule: Q01DX001 (ip), vehicle: saline with Tween-80) 100 % of control; (dose: 25.0 mg/kg/injection, schedule: Q01DX001 (ip), vehicle: saline with Tween-80) 97 % of control; (dose: 25.0 mg/kg/injection, schedule: Q01DX009 (ip), vehicle: other) 104 % of control and 106 % of control; (dose: 25.0 mg/kg/injection, schedule: Q04DX002 (ip), vehicle: other) 99 % of control and 110 % of control; (dose: 50.0 mg/kg/injection, schedule: Q01DX001 (ip), vehicle: saline with Tween-80) 100 % of control; (dose: 50.0 mg/kg/injection, schedule: Q01DX009 (ip), vehicle: other) 101 % of control and 88 % of control. Also, the T/C was 105 % of control and 113 % of control (dose: 50.0 mg/kg/injection, schedule: Q04DX002 (ip), vehicle: other); 100 % of control and 103 % of control (dose: 100.0 mg/kg/injection, schedule: Q04DX002 (ip), vehicle: other).
Regarding `CCc1ccc2[nH]c(C(=O)O)cc2c1`, the T/C reads like this: under setting [1], 92 % of control; under setting [2], 90 % of control.
For the molecule `COc1cccc(CCC(=O)O)c1`, the T/C runs as follows: (dose: 100.0 mg/kg/injection, schedule: Q01DX009 (ip), vehicle: gum acacia) 107 % of control; (dose: 100.0 mg/kg/injection, schedule: Q04DX003 (ip), vehicle: gum acacia) 104 % of control; (dose: 200.0 mg/kg/injection, schedule: Q01DX009 (ip), vehicle: gum acacia) 107 % of control; (dose: 200.0 mg/kg/injection, schedule: Q04DX003 (ip), vehicle: gum acacia) 102 % of control; (dose: 400.0 mg/kg/injection, schedule: Q01DX009 (ip), vehicle: gum acacia) 98 % of control; (dose: 400.0 mg/kg/injection, schedule: Q04DX003 (ip), vehicle: gum acacia) 96 % of control.
As for `O=C(c1ccccc1)C(Br)S(=O)(=O)C(Br)C(=O)c1ccccc1` (stereo unspecified), the T/C is 107 % of control under setting [3]; 107 % of control under setting [4]; 109 % of control (dose: 400.0 mg/kg/injection, schedule: Q04DX003 (ip), vehicle: saline).
Take `NC(=S)N/N=C/c1ccc(C2CCNCC2)cc1`: the T/C was 102 % of control (dose: 15.0 mg/kg/injection, schedule: Q01DX Z (ip), vehicle: methylcellulose (MC)); 92 % of control (dose: 30.0 mg/kg/injection, schedule: Q01DX Z (ip), vehicle: methylcellulose (MC)); 104 % of control (dose: 60.0 mg/kg/injection, schedule: Q01DX Z (ip), vehicle: methylcellulose (MC)); 104 % of control (dose: 120.0 mg/kg/injection, schedule: Q01DX Z (ip), vehicle: methylcellulose (MC)).
As to `CN(C)N=C1CCCC1`, the T/C (dose: 50.0 mg/kg/injection, schedule: Q01DX009 (ip), vehicle: saline) is 103 % of control and the T/C (dose: 100.0 mg/kg/injection, schedule: Q01DX009 (ip), vehicle: saline) is 103 % of control.
Take `Cc1ccc(Cl)cc1NC(=O)c1ccccc1F`: the T/C is 93 % of control under setting [5], 97 % of control under setting [6] and 101 % of control under setting [7].
As to `NNC(N)=S`, the T/C reads like this: (dose: 3.13 mg/kg/injection, schedule: Q04DX003 (ip), vehicle: saline) 109 % of control; (dose: 6.25 mg/kg/injection, schedule: Q04DX003 (ip), vehicle: saline) 104 % of control and 103 % of control; (dose: 12.5 mg/kg/injection, schedule: Q04DX003 (ip), vehicle: saline) 97 % of control and 100 % of control.
As to `CC(=O)c1ccc2cc(O)ccc2c1`, the T/C (dose: 50.0 mg/kg/injection, schedule: Q04DX003 (ip), vehicle: saline) was 101 % of control; the T/C under setting [1] was 97 % of control; the T/C under setting [3] is 101 % of control; the T/C under setting [8] was 101 % of control; the T/C under setting [4] is 103 % of control; the T/C under setting [2] is 104 % of control.
Turning to `CN1CCC(CCOCc2ccccc2)(CN2c3ccccc3Sc3ccccc32)C1` (stereo unspecified), the T/C is, setting by setting: (dose: 6.25 mg/kg/injection, schedule: Q01DX009 (ip), vehicle: saline with Tween-80) 93 % of control; (dose: 12.5 mg/kg/injection, schedule: Q01DX009 (ip), vehicle: saline with Tween-80) 98 % of control; (dose: 25.0 mg/kg/injection, schedule: Q01DX009 (ip), vehicle: saline with Tween-80) 93 % of control.
As for `O=Cc1ccc2c3c(cccc13)CC2`, the T/C under setting [1] was 96 % of control, the T/C under setting [8] was 101 % of control and the T/C under setting [2] is 100 % of control.
As to `COC(=O)C1=COC(C)C2CN3CCc4c([nH]c5cc(OC)ccc45)C3CC12` (stereo unspecified), the T/C (dose: 22.0 mg/kg/injection, schedule: Q01DX Z (ip), vehicle: other) was 100 % of control and the T/C (dose: 44.0 mg/kg/injection, schedule: Q01DX Z (ip), vehicle: other) is 86 % of control.
For the molecule `O=C(c1ccc(Cl)cc1)N1CCC(CCCc2ccccc2)CC1`, the T/C under setting [5] was 96 % of control, the T/C under setting [6] was 99 % of control and the T/C under setting [7] is 96 % of control.
In the case of `CNC(=O)C1OC(n2cnc3c(N)ncnc32)C2OC(C)(C)OC12` (stereo unspecified), the T/C is, setting by setting: (dose: 100.0 mg/kg/injection, schedule: Q01DX005 (ip), vehicle: saline) 97 % of control; (dose: 200.0 mg/kg/injection, schedule: Q01DX005 (ip), vehicle: saline) 101 % of control.
`C=CC(=O)NC(C)C`: the T/C is, setting by setting: under setting [9], 102 % of control; under setting [10], 104 % of control; (dose: 400.0 mg/kg/injection, schedule: Q04DX003 (ip), vehicle: saline with Tween-80) 86 % of control.
As to `CC(C)/C=C(\C#N)C(=O)O`, the T/C was 97 % of control (dose: 12.5 mg/kg/injection, schedule: Q04DX003 (ip), vehicle: Klucel (hydroxypropylcellulose) (HPC)); 95 % of control (dose: 25.0 mg/kg/injection, schedule: Q01DX009 (ip), vehicle: Klucel (hydroxypropylcellulose) (HPC)); 101 % of control (dose: 25.0 mg/kg/injection, schedule: Q04DX003 (ip), vehicle: Klucel (hydroxypropylcellulose) (HPC)); 95 % of control (dose: 50.0 mg/kg/injection, schedule: Q01DX009 (ip), vehicle: Klucel (hydroxypropylcellulose) (HPC)); 98 % of control (dose: 50.0 mg/kg/injection, schedule: Q04DX003 (ip), vehicle: Klucel (hydroxypropylcellulose) (HPC)).
Regarding `O=C1c2ccccc2C(=O)N1CN1C(=O)c2ccccc2C1=O`, the T/C is 88 % of control under setting [9] and 91 % of control under setting [10].
On to `O=NN(CCF)C(=O)NC1CCSCC1`, for which the T/C runs as follows: (dose: 24.0 mg/kg/injection, schedule: Q01DX001 (ip), vehicle: other) 334 % of control; (dose: 36.0 mg/kg/injection, schedule: Q01DX001 (ip), vehicle: other) 344 % of control; (dose: 54.0 mg/kg/injection, schedule: Q01DX001 (ip), vehicle: other) 344 % of control.
In the case of `Nc1nc(N)c2nc(CN3CCCc4cc(C(=O)NC(CCC(=O)O)C(=O)O)ccc43)cnc2n1` (stereo unspecified), the T/C under setting [3] is 207 % of control.
Regarding `O=C1c2ccccc2-c2ccccc2C12N=Nc1ccccc12` (stereo unspecified), the T/C by setting is: (dose: 25.0 mg/kg/injection, schedule: Q04DX002 (ip), vehicle: Klucel (hydroxypropylcellulose) (HPC)) 101 % of control; (dose: 50.0 mg/kg/injection, schedule: Q04DX002 (ip), vehicle: Klucel (hydroxypropylcellulose) (HPC)) 97 % of control; under setting [5], 101 % of control.
On to `CCOC(=N)c1cn(C2OC(CO)C(O)C2O)c2ncnc(N)c12` (stereo unspecified), for which the T/C reads like this: (dose: 0.12 mg/kg/injection, schedule: Q01DX009 (ip), vehicle: saline with Tween-80) 120 % of control; (dose: 0.12 mg/kg/injection, schedule: Q01DX009 (ip), vehicle: saline) 109 % of control; (dose: 0.18 mg/kg/injection, schedule: Q01DX009 (ip), vehicle: saline with Tween-80) 120 % of control; (dose: 0.18 mg/kg/injection, schedule: Q01DX009 (ip), vehicle: saline) 123 % of control; (dose: 0.27 mg/kg/injection, schedule: Q01DX009 (ip), vehicle: saline with Tween-80) 117 % of control; (dose: 0.27 mg/kg/injection, schedule: Q01DX009 (ip), vehicle: saline) 121 % of control. The T/C runs as follows: (dose: 0.6 mg/kg/injection, schedule: Q01DX009 (ip), vehicle: saline) 118 % of control; (dose: 0.9 mg/kg/injection, schedule: Q01DX009 (ip), vehicle: saline) 112 % of control; (dose: 1.3 mg/kg/injection, schedule: Q01DX009 (ip), vehicle: saline) 96 % of control.
